We go through ten compounds from patent US10172957B2, “Acid-labile lipophilic prodrugs of cancer chemotherapeutic agents” (priority 2011, dated 2019).

Assay [1] relates to SK-N-AS cells (MDR− Neuroblastoma). The experiment in a line: MTS proliferation assay using SK-N-AS cells. In kind it is cell-based. To be noted: Homo sapiens, read-out: IC50 in SK-N-AS. On the procedure:
SK-N-AS cells were plated in appropriate growth medium at 5×10^3 per well in 100 μL in 96 well tissue culture plates, Falcon, one plate for each drug to be tested. Column 1 was blank; it contained medium, but no cells. The plates were incubated overnight at 37° C. in 5% CO2 to allow attachment.
Drug diluted in culture media was added to the cells at a concentration of 0.005 nM to 10 μM, in quadruplicate. After 48-72 hours of drug exposure, the MTS agent was added to all wells and incubated 1-6 hrs (37° C., 5% CO2), depending on cell type, as per CellTiter 96® AQueous Non-Radioactive Cell Proliferation Assay (MTS), Promega. Plates were processed using a Bio-Tek Synergy HT Multi-detection microtiter plate reader at 490 nanometer wavelength and data were processed with KC4V.3 software. Data plots of drug concentration vs. absorbance were plotted and the concentration resulting in 50% inhibition (IC50) was extrapolated for each of the tested compounds.
As summarized in Table 1, the IC50 value for each tested compound in the SK-N-AS cell line was determined. The clinical comparator drug, paclitaxel, was included in the experiment to allow comparison of the results of the candidate compounds to a clinically relevant standard in the taxane class.

Assay [2] has as its system MES-SA uterine sarcoma line. In words: MTT-based cytotoxicity assay, MES-SA. Type of assay: cell-based, human. Conditions: read-out: IC50 MESSA (Hs). From the text: (§1) A second evaluation of the cytotoxicity of the acid labile, lipophilic molecular conjugates was undertaken.
(§2) These lines included a uterine sarcoma line, MES-SA, and its doxorubicin-resistant subline, MES-SA/Dx5. See W. G. Harker, F. R MacKintosh, and B. I. Sikic. Development and characterization of a human sarcoma cell line, MES-SA, sensitive to multiple drugs. Cancer Research 43: 4943-4950 (1983); W. G. Harker and B. I. Sikic. Multidrug (pleiotropic) resistance in doxorubicin-selected variants of the human sarcoma cell line MES-SA. Cancer Research 45: 4091 4096 (1985).
(§3) MES-SA/Dx5 cells express high levels of ABCB1 (MDR1) mRNA and its gene product, the P-glycoprotein. MES-SA and MES-SA/Dx5 were purchased from the American Type Culture Collection (ATCC, Manassas, Va.).

Assay [3] deals with MES-SA/Dx5 doxorubicin-resistant subline (MDR+). The experiment in a line: cells. Type of assay: cell-based, human. Conditions: for Degree of resistance (MESSA/Dx5): IC50 of the resistant line divided by IC50 of sensitive MES-SA cells.
Text: as §1, §2, §3

Another assay deals with CCRF-CEM (CEM) cells. The experiment in a line: MTT-based cytotoxicity assay, CEM. In kind it is cell-based, human.
Text: as §1, §2
(§4) The second set of cells tested, CCRF-CEM or simply CEM, were derived from the blood of a patient with acute lymphoblastic leukemia. G. E. Foley, H. Lazarus, S. Farber, B. G. Uzman, B. A. Boone, and R E. McCarthy. Continuous culture of human lymphoblasts from peripheral blood of a child with acute leukemia. Cancer 18: 522-529 (1965). The subline CEM/VLB100 was developed to be resistant to up to vinblastine at 100 ng/ml. W. T. Beck, T. J. Mueller, and L. R. Tanzer. Altered surface membrane glycoproteins in Vinca alkaloid-resistant human leukemic lymphoblasts. Cancer Research 39: 2070-2076 (1979). Drug resistance is achieved by overexpression of the MDR1 gene. Resistance in the CEM subline designated CEM/VM-1-5, however, is “atypical.” M. K. Danks, J. C. Yalowich, and W. T. Beck. Atypical multiple drug resistance in a human leukemic cell line selected for resistance to teniposide (VM-26). Cancer Research 47: 1297-1301 (1987). The classes of drugs included in the “classic” multiple drug resistance phenotype are Vinca alkaloids, anthracyclines, epipodophyllotoxins and antibiotics. However, CEM/VM-1-5 cells retain sensitivity to the Vinca alkaloids despite resistance and cross-resistance to etoposide, anthracyclines and mitoxantrone. Danks, M. K.; Schmidt, C. A.; Cirtain, M. C.; Suttle, D. P.; Beck, W. T., Altered catalytic activity of and DNA cleavage by DNA topoisomerase II from human leukemic cells selected for resistance to VM-26. Biochemistry 1988, 27, 8861-8869. Resistance in CEM/VM-1-5 cells is effected by over expression of the […]. CEM, CEM/VLB100 and CEM/VM-1-5 cells were obtained from Dr. WT Beck, University of Illinois at Chicago.

The test system of a further assay is CEM/VLB100 cells (MDR+). The experiment in a line: cells. Type of assay: cell-based, human. To be noted: for Degree of resistance (CEM/VLB100): IC50 of the resistant line divided by IC50 of sensitive CEM cells.
Text: as §1, §2, §4

In the next assay the test system is CEM/VM-1-5 cells (MDR+). The experiment in a line: cells. Conditions: for Degree of resistance (CEM/VM-1-5): IC50 of the resistant line divided by IC50 of sensitive CEM cells. In kind it is cell-based, human.
Text: A second evaluation of the cytotoxicity of the acid labile, lipophilic molecular conjugates was undertaken. […]
as §4

Setting [4] is: SK-N-AS (MDR− Neuroblastoma), MTS, 48-72 hours drug exposure.
Where [5] appears, read: Homo sapiens, read-out: IC50 CEM/VM-1-5 (MDR + HTL), CEM/VM-1-5, MTT.

Where two headings read alike, the source gives them in different places.

`CC/C=C\C/C=C\C/C=C\C/C=C\C/C=C\C/C=C\CCCOC(=O)O[C@@H]1C(=O)C=C(C)[C@@H]2C[C@H]3OC(=O)C(OC(=O)CC(O)(C(C)C)C(C)C)C4[C@@H](C)[C@@H](O)[C@]5(O)OC[C@@]43C5[C@@]12C` (stereo partly drawn) [ART 449]: the IC50 in assay [1] (setting [4]) is 4 ± 0.5 nM.

`CCOC(CBr)O[C@@H]1C(=O)C=C(C)[C@@H]2C[C@H]3OC(=O)C(OC(=O)CC(O)(C(C)C)C(C)C)C4[C@@H](C)[C@@H](O)[C@]5(O)OC[C@@]43C5[C@@]12C` (stereo partly drawn) [ART 470]: the IC50 in assay [1] (setting [4]) was determined as 349 ± 15 nM.

As for `CC1=CC(=O)[C@@H](OC(CBr)OC(C)(C)C)[C@]2(C)C3[C@]45CO[C@@]3(O)[C@H](O)[C@H](C)C4C(OC(=O)CC(O)(C(C)C)C(C)C)C(=O)O[C@@H]5C[C@@H]12` (stereo partly drawn) [ART 471], in assay [1] (setting [4]), the IC50 was 262 ± 12 nM.

Turning to `C=CCCCCOC(=O)O[C@@H]1C(=O)C=C(C)[C@@H]2C[C@H]3OC(=O)C(OC(=O)CC(O)(C(C)C)C(C)C)C4[C@@H](C)[C@@H](O)[C@]5(O)OC[C@@]43C5[C@@]12C` (stereo partly drawn) [ART 448], the IC50 in assay [1] (setting [4]) was 5 ± 0.7 nM.

As for doxorubicin [reference compound], the IC50 in assay [2] (MES-SA human sarcoma, MTT) was determined as 2 nM; in assay [3] (MES-SA/Dx5, MTT, read-out: IC50 MESSA/Dx5 (MDR + Hs)), 97 nM; in the assay on CCRF-CEM (CEM) cells (CEM human T-lymphoblastoid, MTT, read-out: IC50 CEM (HTL)) it was 14 nM; in the assay on CEM/VLB100 cells (MDR+) (CEM/VLB100, MTT, read-out: IC50 CEM/VLB100 (MDR + HTL)), 2100 nM; with CEM/VM-1-5 cells (MDR+) (CEM/VM-1-5, MTT, read-out: IC50 CEM/VM-1-5 (MDR + HTL)), 3060 nM. The “Degree of resistance (MESSA/Dx5)” value in assay [3] stood at 49. In the assay with CEM/VLB100 cells (MDR+), the “Degree of resistance (CEM/VLB100)” value worked out at 150. For the same compound, the “Degree of resistance (CEM/VM-1-5)” value in the assay on CEM/VM-1-5 cells (MDR+) is 219.

As for `CCCCCCCCCCC1(C)OCC(COC(=O)O[C@@H]2C(=O)C=C(C)[C@@H]3C[C@H]4OC(=O)[C@H](OC(=O)CC(O)(C(C)C)C(C)C)[C@H]5[C@@H](C)[C@@H](O)[C@]6(O)OC[C@@]54[C@H]6[C@@]23C)O1` (stereo partly drawn) [ART 332], in assay [1] (setting [4]), the IC50 stood at 1.1 ± 0.5 nM.

In the case of `CCCCCCCCCCCCCCCCCCOC(CBr)O[C@@H]1C(=O)C=C(C)[C@@H]2C[C@H]3OC(=O)C(OC(=O)CC(O)(C(C)C)C(C)C)C4[C@@H](C)[C@@H](O)[C@]5(O)OC[C@@]43C5[C@@]12C` (stereo partly drawn) [ART 472], the IC50 in assay [1] (setting [4]) turned out to be 1.19 ± 0.5 nM.

As to `CC(=O)O[C@H]1C(=O)[C@@]2(C)[C@H]([C@H](OC(=O)c3ccccc3)[C@]3(O)C[C@H](OC(=O)[C@H](O)[C@@H](NC(=O)c4ccccc4)c4ccccc4)C(C)=C1C3(C)C)[C@]1(OC(C)=O)CO[C@@H]1C[C@@H]2O` [Paclitaxel, paclitaxel, reference compound], the IC50 was 0.05 ± 0.01 nM in assay [1] (SK-N-AS); 9 ± 7 nM in assay [2] (Homo sapiens, MES-SA); less than 11 nM with CEM/VM-1-5 cells (MDR+) (setting [5]). The “Degree of resistance (MESSA/Dx5)” value in assay [3] stood at 3105 ± 2416. The “Degree of resistance (CEM/VM-1-5)” value in the assay on CEM/VM-1-5 cells (MDR+) came out at 4.

With `CC[C@]1(O)C[C@@H]2CN(CCc3c([nH]c4ccccc34)[C@@](C(=O)OC)(c3cc4c(cc3OC)N(C)[C@H]3[C@@](O)(C(=O)OC)[C@H](OC(C)=O)[C@]5(CC)C=CCN6CC[C@]43[C@@H]65)C2)C1` [Vinblastine, vinblastine, reference compound], the IC50 is 1.1 ± 0.3 nM in assay [2] (Homo sapiens, MES-SA); 43 ± 12 nM in assay [3] (Homo sapiens, MES-SA/Dx5, read-out: IC50 MESSA/Dx5 (MDR + Hs)); 1 ± 0.8 nM in the assay with CCRF-CEM (CEM) cells (Homo sapiens, CCRF-CEM, read-out: IC50 CEM (HTL), CEM human T-lymphoblastoid, MTT); 1.3 ± 0.9 nM in the assay on CEM/VM-1-5 cells (MDR+) (setting [5]). Further, in assay [3], the “Degree of resistance (MESSA/Dx5)” value is reported as 38.5 ± 0.7. Further, the “Degree of resistance (CEM/VLB100)” value in the assay with CEM/VLB100 cells (MDR+) worked out at 255 ± 127. Further, in the assay with CEM/VM-1-5 cells (MDR+), the “Degree of resistance (CEM/VM-1-5)” value turned out to be 1.2 ± 0.07.

As for `CC1=CC(=O)[C@@H](OC(CBr)OC2CCCCC2)[C@]2(C)C3[C@]45CO[C@@]3(O)[C@H](O)[C@H](C)C4C(OC(=O)CC(O)(C(C)C)C(C)C)C(=O)O[C@@H]5C[C@@H]12` (stereo partly drawn) [ART 473], in assay [1] (setting [4]), the IC50 turned out to be 12.6 ± 0.9 nM.
